Experimental data from publication PMC12113431, “Chartarlactams U-X: Novel Phenylspirodrimanes from a Marine Derived Fungus Stachybotrys sp. SZU-W23 with Anti-Inflammatory Activity Mediated by the NF-κB/ROS Signaling Pathways” (Marine Drugs, 2025).
Like-named read-outs stand apart in the source and are kept apart here. Blank lines part the entries; values can stand above or below the molecule they belong to.

Tests used:
[1] = tested on: nitric oxide production in LPS-stimulated RAW 264.7 macrophages; assay: Inhibition of NO production in LPS-stimulated RAW 264.7 macrophages (Griess reaction); assay type: cell-based, mouse; settings: for IC50: Mus musculus, read-out: IC50, inhibition of NO production; for NO production inhibition at 10 μM: test concentration of 10 μM; for NO production inhibition at 10 μM / NO-inhibitory effect: RAW 264.7, LPS; for NO-inhibitory effect: tested at 3 to 30 μM
Protocol: RAW 264.7 macrophages were seeded into 96-well plates at a density of 2.0 × 10^5 cells/well in complete DMEM and allowed to adhere for 2 h at 37 °C under 5% CO2. The cells were pretreated with compounds 1–15 (3–30 μM) for 2 h, followed by stimulation with ultrapure lipopolysaccharide (LPS; 100 ng/mL, from E. coli O111:B4, Sigma-Aldrich) for 24 h. NO production was assessed via the Griess reaction by quantifying nitrite (NO2^−) accumulation in culture supernatants.
Briefly, 50 μL of the cell-free supernatant from each well was mixed with 50 μL of 1% sulfanilamide (dissolved in 5% phosphoric acid; Griess Reagent A, Beyotime Biotechnology, Shanghai, China) and incubated for 5 min at room temperature. Subsequently, 50 μL of 0.1% N-1-naphthylethylenediamine dihydrochloride (Griess Reagent B, Beyotime Biotechnology) was added, followed by 5 min incubation in the dark. The absorbance was measured at 540 nm with a reference wavelength of 630 nm using a Synergy H1 microplate reader (BioTek Instruments, Winooski, VT, USA). Nitrite concentrations were interpolated from a sodium nitrite standard curve (0–100 μM; R^2 > 0.99).

[2] = tested on: ROS production in RAW264.7 cells; assay: LPS-induced ROS production (DCFH-DA fluorescent probe); assay type: cell-based, mouse; settings: RAW264.7, LPS 24 h, concentrations that are not cytotoxic (0.3–10 μM)
Protocol: RAW264.7 cells were seeded into black 96-well plates at a density of 5 × 10^4 cells per well and cultured for 2 h until they adhered to the plate. Subsequently, compound 10 at concentrations of 0.3, 1, 3, and 10 μM was added respectively, and the cells were cultured for another 2 h. Then, 100 ng/mL of LPS was added and the cells were co-cultured in an incubator at 37 °C for 24 h. After that, the production of ROS was detected. The cell culture medium in the 96-well plates was removed, and then […] of the fluorescent probe DCFH-DA solution diluted to 10 μM with serum-free DMEM medium was added. The plates were placed in the cell incubator and incubated in the dark for 30 min. Subsequently, the supernatant was removed and the cells were washed three times with phosphate-buffered saline (PBS). Finally, detection was carried out using a microplate reader (BioTek, Winooski, VT, USA) with an excitation wavelength of 488 nm and an emission wavelength of 525 nm.

[3] = tested on: IL-6 expression in RAW 264.7 cells; assay: LPS-induced IL-6 expression by real time PCR; assay type: cell-based, mouse; settings: RAW 264.7, 0.3–10 μM, LPS 24 h
Protocol: (§1) RAW 264.7 cells (2 × 10^6 cells) were seeded into 30 mm petri dishes. After the cells adhered to the dishes for 2 h, compound 10 at concentrations of 0.3, 1, 3, and 10 μM was added, and the cells were cultured in an incubator at 37 °C for 2 h. Then, 100 ng/mL of LPS was added and the cells were co-cultured for 24 h. The cells were collected into 1.5 mL EP tubes, and total RNA was extracted using an RNA extraction kit. Then, the concentration of the total RNA was determined with a nucleic acid quantifier, and the RNA was reverse transcribed into the corresponding cDNA.
(§2) According to the operation procedures of the rapid reverse transcription kit, 1 μg of total RNA and 1 μL of dNTP Mixture were first added into a PCR tube. Then, RNase-free dH2O was added until the total volume of the solution reached 10 μL. After mixing evenly, the mixture was incubated at 65 °C for 5 min and then immediately placed on ice for ice-bathing. Subsequently, 4 μL of 5 × PrimeScript® Buffer, 0.5 μL of RNase Inhibitor (40 U/μL), 1 μL of PrimeScript® RTase (200 U/μL), and 4.5 μL of RNase Free dH2O were added to make the entire solution system reach 20 μL. […]
(§3) The reaction system mixture was prepared using a real-time quantitative PCR kit. […]

[4] = tested on: iNOS mRNA expression in RAW 264.7 cells; assay: LPS-induced iNOS mRNA expression by RT-qPCR; assay type: cell-based, mouse; settings: RAW 264.7, 0.3–10 μM, LPS 24 h
Protocol: as §1, §2, §3

RAW 264.7 cells = assay: Cytotoxicity, CCK-8 cell viability assay; assay type: cell-based, mouse; settings: for cytotoxicity (qualitative): tested at 3, 10 and 30 μM
Protocol: RAW 264.7 cells were seeded into 96-well plates at a density of 1.0 × 10^5 cells/well (100 μL/well) in complete DMEM (high-glucose DMEM supplemented with 10% FBS, 100 U/mL penicillin, and 100 μg/mL streptomycin) and allowed to adhere for 24 h at 37 °C under 5% CO2. Subsequently, serial dilutions of compounds (0.3–30 μM in DMSO, with the final DMSO concentration < 0.1%) were added to respective wells and incubated for 24 h. Cell viability was assessed using the CCK-8 assay (Dojindo Laboratories, Kumamoto, Japan): 10% (v/v) CCK-8 reagent was added to each well, followed by incubation for 30 min at 37 °C. The absorbance was measured at 450 nm with a reference wavelength of 650 nm using a microplate reader (BioTek Instruments, Winooski, VT, USA).

[5] = tested on: nitric oxide production in LPS-stimulated RAW 264.7 macrophages; assay: Inhibition of NO production in LPS-stimulated RAW 264.7 macrophages (Griess reaction); assay type: cell-based, mouse; settings: re-evaluation within 0.3–10 μM, RAW264.7, LPS
[6] = tested on: TNF-α expression in RAW 264.7 cells; assay: LPS-induced TNF-α expression by real time PCR; assay type: cell-based, mouse; settings: RAW 264.7, 0.3–10 μM, LPS 24 h
Protocol: as §1, §2, §3

NF-κB p65 = molecular target: T1, NF-κB p65 (Mus musculus, UniProt Q04207); assay: DNA-binding activity of p65 (NF-κB p65 ELISA kit); assay type: cell-based; settings: 0.3–10 μM, p < 0.01 vs. LPS-only group
T1 construct: endogenous in cells; host or cells: RAW 264.7 murine macrophages, LPS-stimulated
T1 sequence (Q04207 whole entry): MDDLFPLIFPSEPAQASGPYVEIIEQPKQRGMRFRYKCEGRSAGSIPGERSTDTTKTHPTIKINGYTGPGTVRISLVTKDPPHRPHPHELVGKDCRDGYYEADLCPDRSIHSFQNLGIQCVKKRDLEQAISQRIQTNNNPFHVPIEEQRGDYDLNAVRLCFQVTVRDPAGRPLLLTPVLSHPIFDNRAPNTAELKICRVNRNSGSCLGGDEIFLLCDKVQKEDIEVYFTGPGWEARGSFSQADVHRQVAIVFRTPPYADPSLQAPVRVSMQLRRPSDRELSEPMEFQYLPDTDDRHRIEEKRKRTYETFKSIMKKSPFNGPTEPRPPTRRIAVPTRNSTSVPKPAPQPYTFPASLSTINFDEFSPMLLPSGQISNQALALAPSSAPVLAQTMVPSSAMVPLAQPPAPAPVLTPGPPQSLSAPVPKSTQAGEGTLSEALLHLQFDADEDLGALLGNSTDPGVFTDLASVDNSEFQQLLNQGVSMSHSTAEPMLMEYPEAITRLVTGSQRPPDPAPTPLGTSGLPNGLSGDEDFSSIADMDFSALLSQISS
Protocol: To investigate the anti-inflammatory mechanism of compound 10, we quantified its inhibitory effect on the DNA-binding activity of p65 using a TransAM® NF-κB p65 ELISA kit (Ruixin Biotechnology, Guangzhou, China).
RAW 264.7 macrophages were seeded into 60 mm diameter culture dishes at a density of 3.0 × 10^6 cells/dish in complete DMEM and allowed to adhere for 2 h at 37 °C under 5% CO2. Cells were pretreated with Compound 10 (0.3–10 μM in DMSO, final solvent concentration < 0.1%) for 2 h, followed by stimulation with ultrapure LPS for an additional 2 h. The supernatant of cell culture medium was collected, and then NF-κB p65 binding activity of NF-κB in extracts was detected with NF-κB p65 kit (RUIXIN, Quanzhou, China).

[7] = tested on: IL-1β expression in RAW 264.7 cells; assay: LPS-induced IL-1β expression by real time PCR; assay type: cell-based, mouse; settings: RAW 264.7, 0.3–10 μM, LPS 24 h
Protocol: as §1, §2, §3

[8] = tested on: NO production in LPS-activated RAW264.7 murine macrophages; parameters: method as in doi:10.1039/C7RA09859F; settings: read-out: IC50, inhibition of NO production; cited from earlier work
[9] = RAW264.7, LPS-stimulated RAW 264.7 macrophages, LPS 100 ng/mL, 24 h

IC50 [1, 9]: 26.2 µM
SMILES: C[C@@H]1CC[C@H]2C(C)(C)[C@H](O)[C@H](O)C[C@]2(C)[C@@]12Cc1c(O)cc3c(c1O2)CN(CCc1ccc(O)cc1)C3=O [Compound 1, Chartarlactam U]

IC50 [1, 9]: 22.4 µM
SMILES: CC1CCC2C(C)(C)C(O)C(O)CC2(C)C12Cc1c(O)cc3c(c1O2)C(=O)NC3=O (centres unmarked) [Compound 3, Chartarlactam W]

DNA-binding activity of p65 (NF-κB p65): significant suppression of p65 binding | IC50 [1, 9]: 12.4 µM
SMILES: CCC(C)C(C(=O)O)N1Cc2c(cc(O)c3c2O[C@]2(C3)[C@H](C)CC[C@H]3C(C)(C)[C@H](O)[C@H](O)C[C@@]32C)C1=O (some centres unmarked) [Compound 10]
ROS production [2]: capable of inhibiting the production of ROS | IL-6 expression [3]: dose-dependent attenuation | LPS-induced iNOS mRNA expression [4]: significant suppression | cytotoxicity over the tested concentration range (RAW 264.7 cells; up to 30 μM (0.3–30 μM in the abstract, 3 to 30 μM)): no detectable cytotoxicity | inhibitory effect on NO production at 0.3 μM [5]: potent inhibitory effect on NO production | TNF-α expression [6]: dose-dependent attenuation | IL-1β expression [7]: dose-dependent attenuation | NO production inhibition at 10 μM [1]: potent inhibitory effects

IC50 [1, 9]: 4.4 µM
SMILES: CC(C)CC(C(=O)O)N1Cc2c(cc(O)c3c2O[C@]2(C3)[C@H](C)CC[C@H]3C(C)(C)[C@H](O)[C@H](O)C[C@@]32C)C1=O (some centres unmarked) [Compound 11]
cytotoxicity at 30 μM (RAW 264.7 cells): manifested cytotoxicity | NO production inhibition at 10 μM [1]: potent inhibitory effects | NO-inhibitory effect [1]: significant NO-inhibitory effects

SMILES: CC(C)CC(C(=O)O)N1Cc2c(cc(O)c3c2O[C@]2(C3)[C@H](C)CC[C@H]3C(C)(C)[C@H](O)CC[C@@]32C)C1=O (some centres unmarked) [Compound 12]
cytotoxicity at 30 μM (RAW 264.7 cells): manifested cytotoxicity | IC50 ([1]; RAW264.7, 24 h): 6.5 µM | NO production inhibition at 10 μM [1]: potent inhibitory effects | NO-inhibitory effect [1]: significant NO-inhibitory effects

IC50 [1, 9]: 11.1 µM
SMILES: C[C@@H]1CC[C@H]2C(C)(C)[C@H](O)CC[C@]2(C)[C@@]12Cc1c(O)cc3c(c1O2)CN(C(CCC(=O)O)C(=O)O)C3=O (some centres unmarked) [Compound 13]

SMILES: C[C@@H]1CC[C@H]2C(C)(C)[C@H](O)[C@H](O)C[C@]2(C)[C@@]12Cc1c(O)cc3c(c1O2)CNC3=O [Compound 14]
cytotoxicity (qualitative) (RAW 264.7 cells): low cytotoxicity

SMILES: C[C@@H]1CC[C@H]2C(C)(C)[C@H](O)CC[C@]2(C)[C@@]12Cc1c(O)cc3c(c1O2)CNC3=O [Compound 15]
cytotoxicity (qualitative) (RAW 264.7 cells): low cytotoxicity

SMILES: COC(=O)CCCN1Cc2c(cc(O)c3c2O[C@]2(C3)[C@H](C)CC[C@H]3C(C)(C)[C@H](O)CC[C@@]32C)C1=O [stachybonoid F]
IC50 [8]: 52.5 µM

SMILES: C[C@@H]1CC[C@H]2C(C)(C)[C@H](O)CC[C@]2(C)[C@@]12Cc1c(O)cc3c(c1O2)COC3=O [stachybotrylactone]
IC50 [8]: 17.9 µM

SMILES: CC(=O)O[C@@H]1[C@H](O)C[C@@]2(C)[C@@H](CC[C@@H](C)[C@]23Cc2c(O)cc(CO)c(C=O)c2O3)C1(C)C [stachybotrysin C]
IC50 [8]: 27.2 µM
